Laboratory results taken from patent publication US7781565B2 (priority 2006, dated 2010).

Each substance was assayed on NCI-60 cell lines.
Assay type: cell-based, human

Row | Substance | Cell Line (NCI-60 cell line the peptide is associated with) | Cell Line (NCI-60 cell line the peptide and its motif are associated with) | Cell Line with which the peptide (and its tripeptide motif) is associated | Cell Line the peptide is associated with (peptide recovered from phage library selection on this NCI-60 cell line)
1 | GAVSVLA | SF-295 CNS | – | – | –
2 | WGAGLDA | – | OVCAR-4 Ovarian | – | –
3 | RANGVLV | – | – | H23-Lung | –
4 | SPGRVAD | – | IGROV1 Ovarian | – | –
5 | LLSGVIL | LOX-IMVI Melanoma | – | – | –
6 | RNPGRLA | HT-29 Colon | – | – | –
7 | AWLLSGR | – | UACC 257 Melanoma | – | –
8 | LNAGGSG | – | DU-145 Prostate | – | –
9 | TCGGRSY | – | SK-MEL-2 Melanoma | – | –
10 | WGRGSVA | – | – | Molt-4-Leukemia | –
11 | AGLALTV | MALME-3M Melanoma | – | – | –
12 | GAYGGLL | SF-268 CNS | – | – | –
13 | VYGWGGS | – | DU-145 Prostate | – | –
14 | HPSMGGR | – | – | Hop-62-Lung | –
15 | ATGSGSV | – | PC3 Prostate | – | –
16 | RASCALT | – | – | HL-60-Leukemia | –
17 | FVPRGSY | – | OVCAR-4 Ovarian | – | –
18 | KRAVGRM | – | A498 Renal | – | –
19 | ERVSAAV | – | OVCAR-3 Ovarian | – | –
20 | FAGRVPS | – | – | RPMI-8226-Leukemia | –
21 | AEDSGGR | – | – | – | BT-549 Breast
22 | TAAGSSF | – | – | – | HS 578 T Breast
23 | YSQRSSL | – | – | Hop-62-Lung | –

Row | Substance | Cell Line (NCI-60 cell line the peptide is associated with) | Cell Line (NCI-60 cell line the peptide and its motif are associated with) | Cell Line with which the peptide (and its tripeptide motif) is associated | Cell Line the peptide is associated with (peptide recovered from phage library selection on this NCI-60 cell line)
24 | ASLVARN | – | SK-OV-3-3 Ovarian | – | –
25 | RLGSSGL | – | – | – | RXF393 Renal
26 | GTFGVLG | – | – | Hop-62-Lung | –
27 | AGRGAGG | – | OVCAR-4 Ovarian | – | –
28 | CRRSSLL | – | SK-MEL-2 Melanoma | – | –
29 | DLRLSFP | – | UACC 257 Melanoma | – | –
30 | SHRVSDS | – | – | K-562-Leukemia | –
31 | ASLPVLD | – | M14 Melanoma | – | –
32 | LKAGLRS | – | OVCAR-5 Ovarian | – | –
33 | GGVAGVS | – | – | A549-Lung | –
34 | TGRLSAA | – | UACC62 Melanoma | – | –
35 | YSGRLVM | SNB-75 CNS | – | – | –
36 | PNSAGSV | – | – | – | SN12C Renal
37 | MLGSASL | – | – | – | A498 Renal
38 | IRVSAVV | – | – | – | HS 578 T Breast
39 | PRGLGVG | – | SK-MEL-2 Melanoma | – | –
40 | EGLVSVV | – | – | Molt-4-Leukemia | –
41 | FGGSMAP | – | SK-MEL-2 Melanoma | – | –
42 | YGVSRLL | – | DU-145 Prostate | – | –
43 | EGGRTHW | HT-29 Colon | – | – | –
44 | TAGGAVG | SW620-Colon | – | – | –
45 | ASPPLRS | – | A498 Renal | – | –
46 | GNYGSVL | – | – | Hop-92-Lung | –

Row | Substance | Cell Line (NCI-60 cell line the peptide is associated with) | Cell Line (NCI-60 cell line the peptide and its motif are associated with) | Cell Line with which the peptide (and its tripeptide motif) is associated | Cell Line the peptide is associated with (peptide recovered from phage library selection on this NCI-60 cell line)
47 | HAGSRAS | – | IGROV1 Ovarian | – | –
48 | GLLSSFS | – | M14 Melanoma | – | –
49 | SVSRGRV | – | – | – | A498 Renal
50 | AVWGGLG | – | – | H226-Lung | –
51 | VFQRSSG | – | – | A549-Lung | –
52 | YVGGRLR | – | OVCAR-5 Ovarian | – | –
53 | PGLRGPA | – | OVCAR-4 Ovarian | – | –
54 | YLRSAGM | – | PC3 Prostate | – | –
55 | GLRTRQV | – | – | Hop-92-Lung | –
56 | WGWRASS | – | – | A549-Lung | –
57 | GGSRGYR | – | – | – | UO31 Renal
58 | NSKPLVS | – | – | – | T-47D Breast
59 | SGAGAAF | – | 786-0 Renal | – | –
60 | DGPSGCS | SNB-75 CNS | – | – | –
61 | TRRGRLD | – | – | – | SN12C Renal
62 | RLSALTD | HT-29 Colon | – | – | –
63 | RDLGGRW | – | – | – | MCF-7 Breast
64 | GGSKGSA | – | UACC 257 Melanoma | – | –
65 | SAGLLPS | – | OVCAR-5 Ovarian | – | –
66 | EGVRGVF | – | A498 Renal | – | A498 Renal
67 | ILSDLVS | – | – | – | SN12C Renal
68 | PVRRVSS | – | – | – | HS 578 T Breast
69 | RGGLPRG | HCT-15 Colon | – | – | –

Row | Substance | Cell Line (NCI-60 cell line the peptide is associated with) | Cell Line (NCI-60 cell line the peptide and its motif are associated with) | Cell Line with which the peptide (and its tripeptide motif) is associated | Cell Line the peptide is associated with (peptide recovered from phage library selection on this NCI-60 cell line)
70 | FEGGRSG | – | M14 Melanoma | – | –
71 | LAGMRGS | – | UACC62 Melanoma | – | –
72 | FLLLSHR | – | – | – | SN12C Renal
73 | RPWGAVA | – | SK-OV-3-3 Ovarian | – | –
74 | RFSSRAV | – | IGROV1 Ovarian | – | –
75 | VHSLRAS | – | UACC 257 Melanoma | – | –
76 | QGGRSGV | – | – | – | A498 Renal
77 | SRVSNPS | – | SK-MEL-2 Melanoma | – | –
78 | RRAGGSV | – | OVCAR-5 Ovarian | – | –
79 | KRESGLG | – | – | Hop-62-Lung | –
80 | AGRPDGV | – | DU-145 Prostate | – | –
81 | GLVSSLP | HCT-15 Colon | – | – | –
82 | SRHGLVR | HCT-15 Colon | – | – | –
83 | VLFSAGS | – | – | K-562-Leukemia | –
84 | MDGVSTE | – | – | – | A498 Renal
85 | NLRVGAE | – | OVCAR-4 Ovarian | – | –
86 | SALRVGL | – | – | – | BT-549 Breast
87 | YRALAGG | – | – | – | MDA-MB-435-Breast
88 | PRHRASQ | – | OVCAR-8 Ovarian | – | –
89 | FTSGVSW | COLO-205-Colon | – | – | –
90 | FDPGGLR | – | – | – | SN12C Renal
91 | IGVRGAV | MALME-3M Melanoma | – | – | –
92 | EVIGSGI | – | – | A549-Lung | –

Row | Substance | Cell Line (NCI-60 cell line the peptide is associated with) | Cell Line (NCI-60 cell line the peptide and its motif are associated with) | Cell Line with which the peptide (and its tripeptide motif) is associated | Cell Line the peptide is associated with (peptide recovered from phage library selection on this NCI-60 cell line)
93 | GRVGRDG | – | – | – | A498 Renal
94 | SVSGAGS | – | OVCAR-5 Ovarian | – | –
95 | AGRTGVG | – | – | SR Leukemia | –
96 | AEPRGRV | – | – | H460-Lung | –
97 | VLVEGAV | – | – | – | TK-10 Renal
98 | AGSAFWA | – | 786-0 Renal | – | –
99 | YSGSSDF | COLO-205-Colon | – | – | –
100 | SGWFAGS | – | SK-OV-3-3 Ovarian | – | –
101 | LLSASLV | – | – | K-562-Leukemia | –
102 | RFTRSSG | – | – | A549-Lung | –
103 | FGVLFRS | – | – | EKVX-Lung | –
104 | IGVRGFF | – | – | Molt-4-Leukemia | –
105 | SSSLAGS | – | – | – | UO31 Renal
106 | AGRRLRD | – | – | – | NCI/ADR-RES Breast
107 | LPRRAVF | – | DU-145 Prostate | – | –
108 | RSGRVSN | – | SK-OV-3-3 Ovarian | – | –
109 | RVDRGSL | – | – | – | CAIK-1 Renal
110 | GSGGANL | – | DU-145 Prostate | – | –
111 | TAAAVLL | – | OVCAR-5 Ovarian | – | –
112 | QRYHLRS | – | – | – | CAIK-1 Renal
113 | RGARVSA | – | – | Molt-4-Leukemia | –
114 | TSRGLRL | – | UACC 257 Melanoma | – | –
115 | VSRIGVR | LOX-IMVI Melanoma | – | – | –

Row | Substance | Cell Line (NCI-60 cell line the peptide is associated with) | Cell Line (NCI-60 cell line the peptide and its motif are associated with) | Cell Line with which the peptide (and its tripeptide motif) is associated | Cell Line the peptide is associated with (peptide recovered from phage library selection on this NCI-60 cell line)
116 | GRVVGEA | – | – | H322-Lung | –
117 | ARGVAEY | SF-295 CNS | – | – | –
118 | VALGVSS | – | – | – | T-47D Breast
119 | YYGERSS | – | OVCAR-5 Ovarian | – | –
120 | LVSVWSR | HCT-15 Colon | – | – | –
121 | RQKCGGL | HT-29 Colon | – | – | –
122 | RGSRTGP | U251 CNS | – | – | –
123 | PRVSALV | – | – | – | MDA-MB-231 Breast
124 | LRGSYVL | SW620-Colon | – | – | –
125 | GLVSAFY | – | – | Hop-62-Lung | –
126 | RGSVGPS | SW620-Colon | – | – | –
127 | LRSGSLG | SF-268 CNS | – | – | –
128 | GGRRVVV | – | – | – | NCI/ADR-RES Breast
129 | FRAGVSH | HCT-116 Colon | – | – | –
130 | YVRIGRV | HCT-15 Colon | – | – | –
131 | GGFTGGL | SF-295 CNS | – | – | –
132 | GSTLLSR | LOX-IMVI Melanoma | – | – | –
133 | YAGSGQL | – | OVCAR-8 Ovarian | – | –
